The values that follow come from patent publication US9630929B2, “Benzenesulfonamide compounds and their use as therapeutic agents” (XENON PHARMACEUTICALS INC., priority 2011, dated 2017).

Common to all, as to type: cell-based
One series has as its target NaV1.5 (Homo sapiens (Human), UniProt Q14524). As to the kind of experiment: Patch voltage clamp electrophysiology (EP), affinity for the inactivated state of Nav1.5. The procedure: Patch voltage clamp electrophysiology allows for the direct measurement and quantification of block of voltage-gated sodium channels (Nav's), and allows the determination of the time- and voltage-dependence of block which has been interpreted as differential binding to the resting, open, and inactivated states of the sodium channel (Hille, B., Journal of General Physiology (1977), 69: 497-515).
(§1) The following patch voltage clamp electrophysiology studies were performed on representative compounds of the invention using human embryonic kidney cells (HEK), permanently transfected with an expression vector containing the full-length cDNA coding for the desired human sodium channel α-subunit, grown in culture media containing 10% FBS, 1% PSG, and 0.5 mg/mL G418 at 37° C. with 5% CO2. […] Nav1.7 and Nav1.5 cDNAs (NM_002977 and AC137587; SCN5A, respectively) were stably expressed in HEK-293 cells. The β1 subunit was coexpressed only in the Nav1.7 cell line.
(§2) Sodium currents were measured using the patch clamp technique in the whole-cell configuration using either a PatchXpress automated voltage clamp or manually using an Axopatch 200B (Axon Instruments) or Model 2400 (A-M systems) amplifier. […] The pipette was filled with a solution comprised of: 5 mM NaCl, 10 mM CsCl, 120 mM CsF, 0.1 mM CaCl2, 2 mM MgCl2, 10 mM HEPES, 10 mM EGTA; and adjusted to pH 7.2 with CsOH. The external solution had the following composition: 140 mM NaCl, 5 mM KCl, 2 mM CaCl2, 1 mM MgCl2, 10 mM HEPES; and adjusted to pH 7.4 with NaOH. In some studies, the external sodium was reduced by equimolar replacement with choline. Osmolarity in the CsF internal and NaCl external solutions was adjusted to 300 mOsm/kg and 310 mOsm/kg with glucose, respectively. All recordings were performed at ambient temperature in a bath chamber with a volume of 150 μL. Control sodium currents were measured in 0.5% DMSO. Controls and representative compounds of the invention were applied to the recording chamber through a 4-pinch or 8-pinch valve bath perfusion system manufactured by ALA Scientific Instruments.
Currents were recorded at 40 kHz sampling frequency, filtered at […], and stored using a Digidata-1322A analogue/digital interface with the pClamp software (Axon Instruments). Series resistance compensation was applied (60-80%). […] All statistics in this study are given as mean±SD.
(§3) The membrane potential was maintained at a voltage where inactivation of the channel is complete (which was −60 mV for both Nav1.7 and Nav1.5). The voltage is then stepped back to a very negative (Vhold=−150 mV) voltage for 20 ms and then a test pulse is applied to quantify the compound block. […] The percent decrease in sodium current following wash-on of compound was taken as the percent block of sodium channels.
(§4) The Example numbers provided in Table 1 and Table 2 correspond to the Examples herein: […]

Series [1] addresses T1, NaV1.7 (Homo sapiens (Human), UniProt Q15858). As to the kind of experiment: Patch voltage clamp electrophysiology (EP), affinity for the inactivated state of Nav1.7. The following applies: HEK-293 cells expressing human Nav1.7 with β1 subunit. The procedure:
as §1, §2
Series resistance compensation was applied (60-80%). […] All statistics in this study are given as mean±SD.
as §3, §4

The target in series [2] is T1, NaV1.7. Description: NaV flux assay, inhibition of NaV1.7. To be noted: NaV flux data, included when EP data is not available.
[3] abbreviates: HEK-293 cells expressing human Nav1.5, read-out: NaV1.5 IC50.
Where [4] appears, read: HEK-293 cells expressing human Nav1.5, read-out: NaV1.5 IC50(μM) (class).

A word on the IC50: it is the concentration that inhibits the measured activity by half.

Read-outs that look alike come from different tables or passages of the source.

T1 sequence (Q15858 other isoform, or with tags, fused parts or gaps): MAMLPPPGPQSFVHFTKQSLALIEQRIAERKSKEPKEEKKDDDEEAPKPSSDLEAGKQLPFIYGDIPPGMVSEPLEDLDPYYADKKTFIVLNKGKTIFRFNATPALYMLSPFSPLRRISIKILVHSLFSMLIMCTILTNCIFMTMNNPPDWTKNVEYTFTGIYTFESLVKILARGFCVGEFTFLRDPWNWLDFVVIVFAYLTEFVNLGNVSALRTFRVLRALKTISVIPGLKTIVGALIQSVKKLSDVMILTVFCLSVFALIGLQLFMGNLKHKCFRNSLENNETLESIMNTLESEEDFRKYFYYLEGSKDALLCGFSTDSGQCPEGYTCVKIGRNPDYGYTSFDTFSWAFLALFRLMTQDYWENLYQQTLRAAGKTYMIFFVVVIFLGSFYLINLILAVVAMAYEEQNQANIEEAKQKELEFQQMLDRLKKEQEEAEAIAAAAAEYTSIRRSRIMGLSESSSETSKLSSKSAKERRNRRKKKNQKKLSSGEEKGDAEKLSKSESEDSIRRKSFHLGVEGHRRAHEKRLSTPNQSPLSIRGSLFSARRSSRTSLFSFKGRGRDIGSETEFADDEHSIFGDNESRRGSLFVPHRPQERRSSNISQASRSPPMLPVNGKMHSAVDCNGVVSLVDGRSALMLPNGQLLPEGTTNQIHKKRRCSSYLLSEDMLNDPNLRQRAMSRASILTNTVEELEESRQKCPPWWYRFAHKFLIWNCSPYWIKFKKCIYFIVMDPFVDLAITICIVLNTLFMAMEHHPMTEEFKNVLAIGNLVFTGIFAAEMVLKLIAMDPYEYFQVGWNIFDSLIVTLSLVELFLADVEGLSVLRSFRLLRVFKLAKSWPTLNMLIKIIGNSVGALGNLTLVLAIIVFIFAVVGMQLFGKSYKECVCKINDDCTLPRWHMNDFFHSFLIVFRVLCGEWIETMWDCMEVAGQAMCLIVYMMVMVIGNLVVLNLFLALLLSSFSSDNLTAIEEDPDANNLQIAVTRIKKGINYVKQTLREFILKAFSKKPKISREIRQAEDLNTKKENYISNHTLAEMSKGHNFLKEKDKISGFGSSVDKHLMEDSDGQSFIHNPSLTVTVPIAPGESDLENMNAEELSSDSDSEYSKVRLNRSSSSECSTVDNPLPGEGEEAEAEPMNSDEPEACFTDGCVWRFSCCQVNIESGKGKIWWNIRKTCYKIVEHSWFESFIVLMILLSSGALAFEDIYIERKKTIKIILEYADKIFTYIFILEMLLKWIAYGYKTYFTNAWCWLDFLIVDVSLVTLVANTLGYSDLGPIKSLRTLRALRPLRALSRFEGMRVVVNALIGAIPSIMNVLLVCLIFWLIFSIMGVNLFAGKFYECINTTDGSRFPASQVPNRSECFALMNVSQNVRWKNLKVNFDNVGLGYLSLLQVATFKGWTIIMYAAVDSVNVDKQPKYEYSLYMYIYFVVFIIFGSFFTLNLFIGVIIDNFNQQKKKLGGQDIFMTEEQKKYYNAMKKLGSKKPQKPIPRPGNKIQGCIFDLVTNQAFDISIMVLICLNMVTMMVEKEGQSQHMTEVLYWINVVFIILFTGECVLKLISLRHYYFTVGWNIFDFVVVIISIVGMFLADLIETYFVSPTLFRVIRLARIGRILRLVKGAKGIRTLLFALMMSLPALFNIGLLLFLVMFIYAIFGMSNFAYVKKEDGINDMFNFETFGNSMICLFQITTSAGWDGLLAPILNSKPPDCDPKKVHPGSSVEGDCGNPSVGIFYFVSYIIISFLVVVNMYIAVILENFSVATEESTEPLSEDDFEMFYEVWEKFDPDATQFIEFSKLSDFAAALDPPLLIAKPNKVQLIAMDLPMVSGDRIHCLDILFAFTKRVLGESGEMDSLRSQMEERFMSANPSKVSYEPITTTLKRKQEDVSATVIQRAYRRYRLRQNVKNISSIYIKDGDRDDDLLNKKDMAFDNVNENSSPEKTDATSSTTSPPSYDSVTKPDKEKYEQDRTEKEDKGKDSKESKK
T1 sequence (Q07699 19-218 partner): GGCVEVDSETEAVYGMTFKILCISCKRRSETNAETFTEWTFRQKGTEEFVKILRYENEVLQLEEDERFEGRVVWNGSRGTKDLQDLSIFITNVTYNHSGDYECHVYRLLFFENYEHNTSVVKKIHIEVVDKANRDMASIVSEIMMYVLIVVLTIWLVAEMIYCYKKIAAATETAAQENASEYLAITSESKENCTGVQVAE
NaV1.5, sequence (Q14524 whole entry): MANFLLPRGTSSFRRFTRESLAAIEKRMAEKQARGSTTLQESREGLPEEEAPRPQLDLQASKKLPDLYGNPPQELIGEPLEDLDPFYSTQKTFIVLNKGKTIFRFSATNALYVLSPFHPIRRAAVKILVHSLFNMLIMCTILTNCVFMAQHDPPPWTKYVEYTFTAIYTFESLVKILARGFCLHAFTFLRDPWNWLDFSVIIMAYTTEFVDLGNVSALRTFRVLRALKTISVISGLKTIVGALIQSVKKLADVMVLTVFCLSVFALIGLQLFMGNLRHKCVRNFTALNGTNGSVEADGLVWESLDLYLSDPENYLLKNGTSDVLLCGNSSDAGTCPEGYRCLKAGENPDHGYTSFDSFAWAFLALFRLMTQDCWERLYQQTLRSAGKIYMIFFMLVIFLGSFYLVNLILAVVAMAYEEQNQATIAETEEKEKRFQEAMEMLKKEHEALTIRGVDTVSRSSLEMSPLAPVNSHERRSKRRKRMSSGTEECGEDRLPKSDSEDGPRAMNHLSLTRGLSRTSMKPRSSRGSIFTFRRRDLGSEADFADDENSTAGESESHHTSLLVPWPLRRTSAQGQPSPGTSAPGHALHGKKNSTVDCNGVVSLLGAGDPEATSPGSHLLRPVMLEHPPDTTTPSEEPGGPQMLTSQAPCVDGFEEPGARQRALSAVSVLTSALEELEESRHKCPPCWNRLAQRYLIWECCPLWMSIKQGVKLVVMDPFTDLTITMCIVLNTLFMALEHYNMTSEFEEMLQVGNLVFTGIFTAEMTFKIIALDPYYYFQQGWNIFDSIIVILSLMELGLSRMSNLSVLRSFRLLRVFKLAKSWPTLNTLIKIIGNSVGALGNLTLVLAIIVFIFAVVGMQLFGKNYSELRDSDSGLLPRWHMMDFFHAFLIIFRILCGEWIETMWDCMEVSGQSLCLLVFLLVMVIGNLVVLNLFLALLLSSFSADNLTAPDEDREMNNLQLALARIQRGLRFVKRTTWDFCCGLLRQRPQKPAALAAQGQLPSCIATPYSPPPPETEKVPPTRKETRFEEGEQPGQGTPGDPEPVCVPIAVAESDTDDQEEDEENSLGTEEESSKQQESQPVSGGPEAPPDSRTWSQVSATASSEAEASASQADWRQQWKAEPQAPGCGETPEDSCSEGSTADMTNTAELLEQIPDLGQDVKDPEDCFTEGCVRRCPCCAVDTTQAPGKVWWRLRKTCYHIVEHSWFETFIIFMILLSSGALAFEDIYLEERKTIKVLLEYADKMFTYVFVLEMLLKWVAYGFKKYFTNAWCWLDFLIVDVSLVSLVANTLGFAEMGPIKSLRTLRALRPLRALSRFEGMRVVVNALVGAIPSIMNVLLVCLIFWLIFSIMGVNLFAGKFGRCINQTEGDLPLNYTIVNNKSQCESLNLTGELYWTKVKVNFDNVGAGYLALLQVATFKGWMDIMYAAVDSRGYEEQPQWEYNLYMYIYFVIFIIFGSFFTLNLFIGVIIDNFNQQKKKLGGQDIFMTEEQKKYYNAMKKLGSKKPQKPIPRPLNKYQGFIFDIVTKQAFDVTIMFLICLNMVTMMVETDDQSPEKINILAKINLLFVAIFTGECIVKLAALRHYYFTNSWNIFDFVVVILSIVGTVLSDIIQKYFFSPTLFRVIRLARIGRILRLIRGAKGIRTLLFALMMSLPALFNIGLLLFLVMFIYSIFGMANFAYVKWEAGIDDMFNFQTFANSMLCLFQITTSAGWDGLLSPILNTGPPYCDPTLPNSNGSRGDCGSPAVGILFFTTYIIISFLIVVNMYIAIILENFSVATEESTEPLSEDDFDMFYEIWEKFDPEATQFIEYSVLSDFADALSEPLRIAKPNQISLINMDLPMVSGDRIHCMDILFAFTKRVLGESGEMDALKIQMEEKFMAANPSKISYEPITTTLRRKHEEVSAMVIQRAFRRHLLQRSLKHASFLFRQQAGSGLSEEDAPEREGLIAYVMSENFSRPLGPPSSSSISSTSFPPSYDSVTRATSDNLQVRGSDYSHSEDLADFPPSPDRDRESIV

As to `O=S(=O)(Nc1ncns1)c1cc(F)c(OC[C@@H]2CNCC[C@H]2c2ccc(F)cc2)cc1F` (relative stereo) [Example 45, 2,5-difluoro-4-((trans-4-(4-fluorophenyl)piperidin-3-yl)methoxy)-N-(1,2,4-thiadiazol-5-yl)benzenesulfonamide], the concentration for half-maximal inhibition (IC50) at NaV1.5 (setting [3]) is more than 10 µM; on NaV1.5 (setting [4]) it was more than 10 µM; at NaV1.7 [1] (read-out: NaV1.7 (IC50 class)) it was less than 0.1 µM; on NaV1.7 [1] (read-out: NaV1.7 IC50), 0.0068 µM.

With `N#Cc1cc(S(=O)(=O)Nc2ncns2)ccc1OC[C@@H]1CNCC[C@H]1c1ccc(Cl)cc1` (relative stereo) [Example 58, 4-((trans-4-(4-chlorophenyl)piperidin-3-yl)methoxy)-3-cyano-N-(1,2,4-thiadiazol-5-yl)benzenesulfonamide], the IC50 on NaV1.5 (setting [3]) is more than 10 µM; on NaV1.5 (setting [4]), more than 10 µM; at NaV1.7 [1] (read-out: NaV1.7 (IC50 class)), less than 0.1 µM; on NaV1.7 [1] (read-out: NaV1.7 IC50), 0.0033 µM.

In the case of `O=S(=O)(Nc1ncns1)c1ccc(OC[C@@H]2CNCC[C@H]2c2ccc(Cl)cc2)c(F)c1` (relative stereo) [Example 59, 4-((trans-4-(4-chlorophenyl)piperidin-3-yl)methoxy)-3-fluoro-N-(1,2,4-thiadiazol-5-yl)benzenesulfonamide], the IC50 at NaV1.5 (setting [3]) is more than 10 µM; on NaV1.5 (setting [4]) it was more than 10 µM; on NaV1.7 [1] (read-out: NaV1.7 (IC50 class)), less than 0.1 µM; at NaV1.7 [1] (read-out: NaV1.7 IC50) it was 0.0086 µM.

In the case of `O=S(=O)(Nc1ncc(Cl)s1)c1cc(F)c(OC[C@@H]2CNCC[C@H]2c2ccc(F)c(F)c2)cc1F` (relative stereo) [Example 61, N-(5-chlorothiazol-2-yl)-4-((trans-4-(3,4-difluorophenyl)piperidin-3-yl)methoxy)-2,5-difluorobenzenesulfonamide], the IC50 on NaV1.5 (setting [3]) was more than 10 µM; at NaV1.5 (setting [4]), more than 10 µM; at NaV1.7 [1] (read-out: NaV1.7 (IC50 class)), less than 0.1 µM; at NaV1.7 [1] (read-out: NaV1.7 IC50), 0.0216 µM.

For the molecule `CN1CC[C@@H](c2ccc(Cl)cc2)[C@H](COc2cc(F)c(S(=O)(=O)Nc3ncns3)cc2F)C1` (relative stereo) [Example 70, 4-((trans-4-(4-chlorophenyl)-1-methylpiperidin-3-yl)methoxy)-2,5-difluoro-N-(1,2,4-thiadiazol-5-yl)benzenesulfonamide], the IC50 is more than 10 µM at NaV1.5 (setting [3]), more than 10 µM at NaV1.5 (setting [4]), less than 0.1 µM at NaV1.7 [1] (read-out: NaV1.7 (IC50 class)) and 0.012 µM on NaV1.7 [1] (read-out: NaV1.7 IC50).

`O=C1C[C@@H](c2ccc(F)cc2)[C@H](COc2cc(F)c(S(=O)(=O)Nc3ncns3)cc2F)CN1` (relative stereo) [Example 87, 2,5-difluoro-4-((trans-4-(4-fluorophenyl)-6-oxopiperidin-3-yl)methoxy)-N-(1,2,4-thiadiazol-5-yl)benzenesulfonamide]: the IC50 at NaV1.5 (setting [3]) is more than 10 µM; on NaV1.5 (setting [4]) it was more than 10 µM; on NaV1.7 [1] (read-out: NaV1.7 (IC50 class)), less than 0.1 µM; on NaV1.7 [1] (read-out: NaV1.7 IC50), 0.082 µM.

Consider `O=S(=O)(Nc1ncns1)c1cc(F)c(OC[C@@H]2CN(CC(F)(F)F)CC[C@H]2c2ccc(Cl)cc2)cc1F` (relative stereo) [Example 88, 4-((trans-4-(4-chlorophenyl)-1-(2,2,2-trifluoroethyl)piperidin-3-yl)methoxy)-2,5-difluoro-N-(1,2,4-thiadiazol-5-yl)benzenesulfonamide], for which the IC50 at NaV1.5 (setting [3]) was more than 10 µM; at NaV1.5 (setting [4]) it was more than 10 µM; at NaV1.7 [1] (read-out: NaV1.7 (IC50 class)), 0.1 to 1 µM; on NaV1.7 [1] (read-out: NaV1.7 IC50), 0.13 µM.

Consider `NC(=O)N1CC[C@@H](c2ccc(F)c(F)c2)[C@H](COc2cc(F)c(S(=O)(=O)Nc3ncc(Cl)s3)cc2F)C1` (relative stereo) [Example 89, trans-3-((4-(N-(5-chlorothiazol-2-yl)sulfamoyl)-2,5-difluorophenoxy)methyl)-4-(3,4-difluorophenyl)piperidine-1-carboxamide], for which the IC50 on NaV1.5 (setting [3]) is more than 10 µM; on NaV1.5 (setting [4]) it was more than 10 µM; on NaV1.7 [1] (read-out: NaV1.7 (IC50 class)) it was 0.1 to 1 µM; at NaV1.7 [1] (read-out: NaV1.7 IC50), 0.436 µM.

On NaV1.7 [2], `N#Cc1cc(S(=O)(=O)NC2(C#N)CC2)ccc1OC[C@@H]1CNCC[C@H]1c1ccc(Cl)cc1` (relative stereo) [Example 91, 4-((trans-4-(4-chlorophenyl)piperidin-3-yl)methoxy)-3-cyano-N-(1-cyanocyclopropyl)benzenesulfonamide] displayed an IC50 of more than 10 µM.

On to `N#Cc1cc(S(=O)(=O)NCC(F)(F)F)ccc1OC[C@@H]1CNCC[C@H]1c1ccc(Cl)cc1` (relative stereo) [Example 93, 4-((trans-4-(4-chlorophenyl)piperidin-3-yl)methoxy)-3-cyano-N-(2,2,2-trifluoroethyl)benzenesulfonamide], for which the IC50 against NaV1.7 [2] is more than 10 µM.

Turning to `NS(=O)(=O)c1cc(F)c(OC[C@@H]2CNCC[C@H]2c2ccc(Cl)cc2)cc1F` (relative stereo) [Example 95, 4-((trans-4-(4-chlorophenyl)piperidin-3-yl)methoxy)-2,5-difluorobenzenesulfonamide], the 50% inhibitory concentration (IC50) at NaV1.7 [2] is more than 10 µM.

Molecule `O=C(NS(=O)(=O)c1cc(F)c(OC[C@@H]2CNCC[C@H]2c2ccc(Cl)cc2)cc1F)c1ccccn1` (relative stereo) [Example 99, N-((4-((trans-4-(4-chlorophenyl)piperidin-3-yl)methoxy)-2,5-difluorophenyl)sulfonyl)picolinamide] gave an IC50 against NaV1.7 [2] of more than 10 µM.

In the case of `O=C1C[C@@H](c2cc(F)c(F)cc2F)[C@H](COc2cc(F)c(S(=O)(=O)Nc3ncns3)cc2F)CN1` (relative stereo) [Example 101, 2,5-difluoro-4-((trans-6-oxo-4-(2,4,5-trifluorophenyl)piperidin-3-yl)methoxy)-N-(1,2,4-thiadiazol-5-yl)benzenesulfonamide], on NaV1.7 [2], it took 4.49 µM to reach half-maximal inhibition (IC50).

The molecule `CC(=O)NS(=O)(=O)c1cc(F)c(OC[C@@H]2CNCC[C@H]2c2ccc(Cl)cc2)cc1F` (relative stereo) [Example 102, N-((4-((trans-4-(4-chlorophenyl)piperidin-3-yl)methoxy)-2,5-difluorophenyl)sulfonyl)acetamide] registered a 50% inhibitory concentration (IC50) at NaV1.7 [2] of more than 10 µM.

Turning to `O=C(NS(=O)(=O)c1cc(F)c(OC[C@@H]2CNCC[C@H]2c2ccc(Cl)cc2)cc1F)c1cccnc1` (relative stereo) [Example 103, N-((4-((trans-4-(4-chlorophenyl)piperidin-3-yl)methoxy)-2,5-difluorophenyl)sulfonyl)nicotinamide], on NaV1.7 [2], the IC50 was more than 10 µM.

`O=C(NS(=O)(=O)c1cc(F)c(OC[C@@H]2CNCC[C@H]2c2ccc(Cl)cc2)cc1F)c1ccccc1` (relative stereo) [Example 104, N-((4-((trans-4-(4-chlorophenyl)piperidin-3-yl)methoxy)-2,5-difluorophenyl)sulfonyl)benzamide]: the IC50 on NaV1.7 [2] was more than 10 µM.

As to `CC(C)NC(=O)NS(=O)(=O)c1cc(F)c(OC[C@@H]2CNCC[C@H]2c2ccc(Cl)cc2)cc1F` (relative stereo) [Example 105, 4-((trans-4-(4-chlorophenyl)piperidin-3-yl)methoxy)-2,5-difluoro-N-(isopropylcarbamoyl)benzenesulfonamide], on NaV1.7 [2], the IC50 was more than 10 µM.

Regarding `O=S(=O)(Nc1ncns1)c1cc(F)c(OCC2(F)CNCCC2c2ccc(F)cc2)cc1F` (stereo not drawn) [Example 47, 2,5-difluoro-4-((3-fluoro-4-(4-fluorophenyl)piperidin-3-yl)methoxy)-N-(1,2,4-thiadiazol-5-yl)benzenesulfonamide], the half-maximal inhibitory concentration (IC50) was more than 10 µM at NaV1.5 (setting [3]), more than 10 µM at NaV1.5 (setting [4]), less than 0.1 µM at NaV1.7 [1] (read-out: NaV1.7 (IC50 class)) and 0.0507 µM on NaV1.7 [1] (read-out: NaV1.7 IC50).
